pIC50: −log10 of the molar value.
Tests used:
Rattus norvegicus = assay: Dose normalized AUC in Sprague-Dawley rat at 2 mg/kg, po administered as gastric bolus by LC/MS/MS analysis; assay type: ADME, organism-based; details: in vivo
[1] = biological target: Serine/threonine-protein kinase B-raf (Homo sapiens, UniProt P15056, V600E); assay: Inhibition of full-length His6-tagged BRAF V600E mutant (2 to 766 residues) (unknown origin) expressed in baculovirus system by B-Raf accelerated MEK ATPase assay
[2] = biological target: T1, Serine/threonine-protein kinase TNNI3K (Homo sapiens, UniProt Q59H18); assay: Inhibition of human myc-tagged TNNI3K autophosphorylation overexpressed in HEKMSR2 cells incubated for 30 mins by time resolved fluorescence assay; assay type: cell-based
T1 sequence (Q59H18 whole entry): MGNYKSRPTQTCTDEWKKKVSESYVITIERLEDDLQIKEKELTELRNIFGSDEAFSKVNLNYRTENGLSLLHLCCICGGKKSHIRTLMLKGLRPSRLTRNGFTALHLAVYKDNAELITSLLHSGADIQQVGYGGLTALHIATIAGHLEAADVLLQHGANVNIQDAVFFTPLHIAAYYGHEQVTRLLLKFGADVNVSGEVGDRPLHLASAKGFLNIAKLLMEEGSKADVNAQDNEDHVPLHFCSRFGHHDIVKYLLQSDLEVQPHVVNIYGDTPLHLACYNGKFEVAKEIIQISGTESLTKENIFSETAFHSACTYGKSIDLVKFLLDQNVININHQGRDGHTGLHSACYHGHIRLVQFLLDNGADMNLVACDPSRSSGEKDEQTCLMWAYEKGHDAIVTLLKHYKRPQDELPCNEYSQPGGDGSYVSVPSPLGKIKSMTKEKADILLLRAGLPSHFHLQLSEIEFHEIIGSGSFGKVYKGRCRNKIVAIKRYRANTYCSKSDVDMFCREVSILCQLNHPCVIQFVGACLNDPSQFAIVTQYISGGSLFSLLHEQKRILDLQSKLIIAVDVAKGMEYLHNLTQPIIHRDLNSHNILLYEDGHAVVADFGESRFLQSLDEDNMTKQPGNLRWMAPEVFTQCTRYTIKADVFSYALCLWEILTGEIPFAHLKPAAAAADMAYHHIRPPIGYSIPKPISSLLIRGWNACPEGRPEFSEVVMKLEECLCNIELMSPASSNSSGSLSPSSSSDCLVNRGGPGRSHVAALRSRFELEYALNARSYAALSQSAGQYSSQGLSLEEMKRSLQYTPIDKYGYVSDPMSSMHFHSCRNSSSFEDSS

[3] = biological target: T1, Serine/threonine-protein kinase TNNI3K; assay: Displacement of 5-({[2-({[3-({4-[(5-hydroxy-2-methylphenyl)amino]-2-pyrimidinyl}amino)phenyl]carbonyl}amino)-ethyl]amino}carbonyl)-2-(6-hydroxy-3-oxo-3H-xanthen-9-yl)benzoic acid from full length human TNNI3K expressed in baculovirus system incubated for 60 mins by fluorescence polarization assay
[4] = Half life in Sprague-Dawley rat at 2 mg/kg, po administered as gastric bolus by LC/MS/MS analysis; assay type: ADME, organism-based; details: in vivo
[5] = Fraction unbound in Sprague-Dawley rat plasma at 2 mg/kg, po administered as gastric bolus by LC/MS/MS analysis; assay type: ADME, organism-based
[6] = Cmax in Sprague-Dawley rat at 2 mg/kg, po administered as gastric bolus by LC/MS/MS analysis; assay type: ADME, organism-based; design: dose 2 mg/kg, route oral; details: in vivo

Sequence of Serine/threonine-protein kinase B-raf (P15056 2-766 V600E limits assumed): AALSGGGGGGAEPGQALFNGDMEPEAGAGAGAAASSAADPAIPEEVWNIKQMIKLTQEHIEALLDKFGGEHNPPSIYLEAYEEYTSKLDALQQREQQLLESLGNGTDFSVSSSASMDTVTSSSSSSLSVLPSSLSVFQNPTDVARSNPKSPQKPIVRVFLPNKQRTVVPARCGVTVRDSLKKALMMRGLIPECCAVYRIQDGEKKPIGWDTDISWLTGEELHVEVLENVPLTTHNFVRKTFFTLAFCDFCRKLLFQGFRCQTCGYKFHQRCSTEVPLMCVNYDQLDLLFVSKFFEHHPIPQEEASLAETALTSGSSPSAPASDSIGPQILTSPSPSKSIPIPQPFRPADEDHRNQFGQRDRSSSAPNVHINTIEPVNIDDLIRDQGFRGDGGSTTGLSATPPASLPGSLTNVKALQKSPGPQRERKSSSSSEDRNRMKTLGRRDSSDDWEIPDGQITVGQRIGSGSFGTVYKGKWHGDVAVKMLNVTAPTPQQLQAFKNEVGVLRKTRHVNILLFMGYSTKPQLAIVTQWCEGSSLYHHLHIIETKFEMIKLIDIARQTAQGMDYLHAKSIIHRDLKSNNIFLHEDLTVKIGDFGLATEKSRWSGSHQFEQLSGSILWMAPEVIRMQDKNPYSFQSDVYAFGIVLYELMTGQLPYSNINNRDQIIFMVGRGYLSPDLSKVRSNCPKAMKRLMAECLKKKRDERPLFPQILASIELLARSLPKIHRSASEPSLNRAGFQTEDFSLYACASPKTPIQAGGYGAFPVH

Compound	AUC/dose (Rattus norvegicus) [kg·h/L]	pIC50 [1]	pIC50 [2]	pIC50 [3]	half-life [4] [h]	fraction unbound [5]	Cmax [6] [ng/mL]
CNS(=O)(=O)c1ccc(OCC(F)(F)F)c(Nc2ncnc3cc(OC)c(OC)c(OC)c23)c1	0.24	7.10	7.20	> 8.00			
CNS(=O)(=O)c1ccc(N(C)C)c(Nc2ncnc3ccn(C)c23)c1	0.02	6.89	7.30	7.80			
CNc1ccc2ncnc(Nc3cc(S(=O)(=O)NC)ccc3N(C)C)c2c1		6.00		7.30			
CNS(=O)(=O)c1ccc(N(C)C)c(Nc2ncnc3cc(OCCCN4CCOCC4)ccc23)c1	0.02	5.60	7.60	> 8.00			
CNS(=O)(=O)c1ccc(N(C)C)c(Nc2ncnc3cc(OCCCOC)ccc23)c1	0.03	6.10	7.60	> 8.00			
CNS(=O)(=O)c1ccc(N(C)C)c(Nc2ncnc3ccccc23)c1		6.60		6.70			
CNS(=O)(=O)c1ccc(N(C)C)c(Nc2ncnc3cc(OC)c(OC)cc23)c1	0.18	6.00	7.00	7.60	3.6	0.202	130
CNS(=O)(=O)c1ccc(OCC(F)(F)F)c(Nc2ncnc3cc(OCCCOC)ccc23)c1	0.07	6.80	6.49	7.60			
CNc1ccc2c(Nc3cc(S(=O)(=O)NC)ccc3N(C)C)ncnc2c1		5.00		7.40			
CNS(=O)(=O)c1ccc(OCC(F)(F)F)c(Nc2ncnc3cc(OCCCN4CCOCC4)ccc23)c1	0	5.89	7.10	7.89			
CNS(=O)(=O)c1ccc(N(C)C)c(Nc2ncnc3ccc(N)cc23)c1		6.20		7.49			
CNS(=O)(=O)c1ccc(N2CCOCC2)c(Nc2ncnc3[nH]cc(Cl)c23)c1		9.22		> 8.00			
CNS(=O)(=O)c1ccc(N(C)C)c(Nc2ncnc3ccsc23)c1		6.00		6.70			
CNS(=O)(=O)c1ccc(OCC(F)(F)F)c(Nc2ncnc3cc(OC)cc(OC)c23)c1	1.4	7.30	7.89	> 8.00			
CCOc1cc2ncnc(Nc3cc(S(=O)(=O)NC)ccc3OCC(F)(F)F)c2cc1OC	1.7	7.00	7.30	7.89			
CNS(=O)(=O)c1ccc(N(C)C)c(Nc2ncnc3cc[nH]c23)c1	0.01	6.60	6.30	7.60			
CNS(=O)(=O)c1ccc(N(C)C)c(Nc2ncnc3ccc(OC)cc23)c1		6.00		7.10			
CNS(=O)(=O)c1ccc(N(C)C)c(Nc2ncnc3cc(OC)cc(OC)c23)c1	0.04	7.10	8.00	> 8.00			
CNS(=O)(=O)c1ccc(N(C)C)c(Nc2ncnc3cc(N)ccc23)c1		5.40		7.20			
CNS(=O)(=O)c1ccc(OCC(F)(F)F)c(Nc2ncnc3cc(OC(C)C)c(OC)cc23)c1		4.49		6.89			
CNS(=O)(=O)c1ccc(OCC(F)(F)F)c(Nc2ncnc3cc(OC)c(OC)cc23)c1	1.9	6.89	6.80	7.60			
CNS(=O)(=O)c1ccc(N(C)C)c(Nc2ncnc3[nH]ccc23)c1	0.59						
